In PubChem BioAssay (NCI):
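Assay format: 96-well plates, 48-hour exposure. At the TGI there is no net growth.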

How the values were obtained:
Assay in all cases: NCI anticancer screen, dose series, 48 h
NCI/ADR-RES ovarian = system: NCI/ADR-RES ovarian
HS 578T breast = system: HS 578T breast
SF-295 CNS = system: SF-295 CNS
OVCAR-4 ovarian = system: OVCAR-4 ovarian
MOLT-4 leukemia = system: MOLT-4 leukemia
IGROV1 ovarian = system: IGROV1 ovarian
UO-31 renal = system: UO-31 renal
NCI-H23 lung = system: NCI-H23 lung
SR leukemia = system: SR leukemia
MDA-N = system: MDA-N
SK-MEL-5 melanoma = system: SK-MEL-5 melanoma
MALME-3M melanoma = system: MALME-3M melanoma
COLO 205 colon = system: COLO 205 colon
KM12 colon = system: KM12 colon
HCT-15 colon = system: HCT-15 colon
NCI-H460 lung = system: NCI-H460 lung
PC-3 prostate = system: PC-3 prostate
SW-620 colon = system: SW-620 colon
MDA-MB-231 breast = system: MDA-MB-231 breast
HCC-2998 colon = system: HCC-2998 colon
SN12C renal = system: SN12C renal
OVCAR-5 ovarian = system: OVCAR-5 ovarian
HOP-92 NSCLC = system: HOP-92 NSCLC
OVCAR-3 ovarian = system: OVCAR-3 ovarian
LOX IMVI melanoma = system: LOX IMVI melanoma
TK-10 renal = system: TK-10 renal
BT-549 breast = system: BT-549 breast
A549 NSCLC = system: A549 NSCLC
UACC-257 melanoma = system: UACC-257 melanoma
RPMI-8226 leukemia = system: RPMI-8226 leukemia
M14 melanoma = system: M14 melanoma
HCT-116 colon = system: HCT-116 colon
MDA-MB-435 = system: MDA-MB-435
A498 renal = system: A498 renal
HT29 colon = system: HT29 colon
SF-268 CNS = system: SF-268 CNS
HL-60(TB) leukemia = system: HL-60(TB) leukemia
T-47D breast = system: T-47D breast
EKVX NSCLC = system: EKVX NSCLC
OVCAR-8 ovarian = system: OVCAR-8 ovarian
ACHN renal = system: ACHN renal
SK-MEL-2 melanoma = system: SK-MEL-2 melanoma
SF-539 CNS = system: SF-539 CNS
CAKI-1 renal = system: CAKI-1 renal
UACC-62 melanoma = system: UACC-62 melanoma
SK-MEL-28 melanoma = system: SK-MEL-28 melanoma
U251 CNS = system: U251 CNS
DU-145 prostate = system: DU-145 prostate
786-0 renal = system: 786-0 renal
HOP-62 NSCLC = system: HOP-62 NSCLC
SNB-75 CNS = system: SNB-75 CNS
MCF7 breast = system: MCF7 breast
NCI-H522 lung = system: NCI-H522 lung

CCOC(=O)C1C(c2ccc(OC)cc2)c2c([nH]n(-c3ccccc3)c2=O)CC1(O)OCC (stereo not drawn)
TGI (NCI/ADR-RES ovarian): > 100 µM
TGI (HS 578T breast): > 100 µM
TGI (SF-295 CNS): > 100 µM
TGI (OVCAR-4 ovarian): > 100 µM
TGI (MOLT-4 leukemia): 14 µM
TGI (IGROV1 ovarian): > 100 µM
TGI (UO-31 renal): > 100 µM
TGI (NCI-H23 lung): > 100 µM
TGI (SR leukemia): > 100 µM
TGI (MDA-N): > 100 µM
TGI (SK-MEL-5 melanoma): > 100 µM
TGI (MALME-3M melanoma): > 100 µM
TGI (COLO 205 colon): > 100 µM
TGI (KM12 colon): > 100 µM
TGI (HCT-15 colon): > 100 µM
TGI (NCI-H460 lung): > 100 µM
TGI (PC-3 prostate): > 100 µM
TGI (SW-620 colon): > 100 µM
TGI (MDA-MB-231 breast): > 100 µM
TGI (HCC-2998 colon): > 100 µM
TGI (SN12C renal): > 100 µM
TGI (OVCAR-5 ovarian): > 100 µM
TGI (HOP-92 NSCLC): > 100 µM
TGI (OVCAR-3 ovarian): > 100 µM
TGI (LOX IMVI melanoma): > 100 µM
TGI (TK-10 renal): > 100 µM
TGI (BT-549 breast): > 100 µM
TGI (A549 NSCLC): > 100 µM
TGI (UACC-257 melanoma): > 100 µM
TGI (RPMI-8226 leukemia): > 100 µM
TGI (M14 melanoma): > 100 µM
TGI (HCT-116 colon): > 100 µM
TGI (MDA-MB-435): > 100 µM
TGI (A498 renal): > 100 µM
TGI (HT29 colon): > 100 µM
TGI (SF-268 CNS): > 100 µM
TGI (HL-60(TB) leukemia): 15 µM
TGI (T-47D breast): > 100 µM
TGI (EKVX NSCLC): > 100 µM
TGI (OVCAR-8 ovarian): > 100 µM
TGI (ACHN renal): > 100 µM
TGI (SK-MEL-2 melanoma): > 100 µM
TGI (SF-539 CNS): > 100 µM
TGI (CAKI-1 renal): > 100 µM
TGI (UACC-62 melanoma): > 100 µM
TGI (SK-MEL-28 melanoma): > 100 µM
TGI (U251 CNS): > 100 µM
TGI (DU-145 prostate): > 100 µM
TGI (786-0 renal): > 100 µM
TGI (HOP-62 NSCLC): > 100 µM
TGI (SNB-75 CNS): > 100 µM
TGI (MCF7 breast): > 100 µM
TGI (NCI-H522 lung): > 100 µM
